Measurements taken from patent US9511070B2, “Heterocyclyl carboxamides for treating viral diseases” (NOVADRUG, LLC, priority 2012, dated 2016).

system: JFH-1 HCV; conditions: viral titer at 5 μM or 15 μM compared to untreated control
Source text: In vitro assay for anti-HCV efficacy. HCV studies typically involve infected patients and chimpanzees. However, recently, a robust HCV infection system was developed with cells derived from the Huh-7 human hepatoma cell line. It is based on the unique JFH-1 HCV consensus cDNA derived from an HCV patient. Using reverse genetics, the infectious virus can be rescued from this HCV clone. The recovered viable JFH virus can be passaged serially in Huh-7 cells. For this reason, this system is amenable for evaluating the activity of test compound for their anti-HCV efficacy.
Briefly, 6×10^3 Huh7-1 cells are incubated overnight in each well of collagen-coated BioCoat 96-well plates (BD Biosciences, Bedford, Mass.) in 0.2 ml 10% medium composed of Dulbecco's modified Eagle's medium supplemented with 10% fetal bovine serum. Subsequently, at 2 day intervals, the cultures are replenished with fresh 0.2 ml 10% medium. After the cultures become confluent, they continue to be replenished at 2 day intervals with fresh 0.2 ml 10% medium that also includes 1% dimethyl sulfoxide (DMSO). After 20 days of these replenishments, the Huh7-1 cultures are incubated with fresh 1% medium (same as 10% medium except that the serum level is 1%) containing HCV at a multiplicity of infection (MOI) of 0.05 focus forming units (ffu)/cell. The HCV (JFH-lwt Huh7) stock titer is 1.5×10^5 ffu/mL. The next day (day 1 post-infection) and 2 days later (day 3 post-infection) the media are replenished with fresh 1% medium containing the test compounds dissolved in DMSO. On the 5th day of treatment with the compounds, cell lysates are collected for RNA isolation and Real Time-quantitative Reverse Transcription Polymerase Chain Reaction (RT-qPCR) and culture media are collected for cytotoxicity analysis.
Total RNA is isolated from cells by the guanidine thiocyanate method using standard protocols. One μg RNA is used for cDNA synthesis using TaqMan reverse transcription reagents (Applied Biosystems, Foster City, Calif.) followed by real-time PCR using an Applied Biosystems 7300 real-time thermocycler. Thermal cycling consists of initial denaturation of 10 min at 95° C. followed by 40 cycles of denaturation (15 s at 95° C.) and annealing/extension (1 m at 60° C.). HCV and human glyceraldehyde-3-phosphate dehydrogenase (GAPDH) RNA levels are determined relative to a standard curve of serial dilutions of plasmid containing JFH-1 HCV or GAPDH cDNA. The PCR primers used to detect GAPDH and HCV are: GAPDH (NMX002046) 5′-[…]-3′(SEQ ID NO: 16) (sense) and 5′-[…]-3′(SEQ ID NO: 17) (anti-sense) JFH-1 HCV (AB047639) 5′-[…]-3′(SEQ ID NO: 18) (sense) and 5′-[…]-3′(SEQ ID NO: 19) (anti-sense).

Row | SMILES | HCV Antiviral Activity
1 | O=C(Nc1ccc(Oc2ccccc2)nc1)C1CCN(Cc2ccccc2)CC1 [Example 77] | ++ (“++” corresponds to ≦60% viral titer at 5 μM)
2 | CCn1cc(CN2CCC(C(=O)Nc3cccc(-c4cccc(Cl)c4)c3)CC2)cn1 [Example 78] | ++ (“++” corresponds to ≦60% viral titer at 5 μM)
3 | Cc1nc(C)c(CN2CCC(C(=O)Nc3cccc(-c4cccc(F)c4)c3)CC2)nc1C [Example 79] | ++ (“++” corresponds to ≦60% viral titer at 5 μM)
4 | CCCn1ncc(CN2CCC(C(=O)Nc3ccccc3-c3cccc(OC)c3)CC2)c1C [Example 80] | + (“+” corresponds to ≦60% viral titer at 15 μM)
5 | COc1ccc(O)c(CN2CCC(C(=O)Nc3ccc(Oc4ccccc4F)cc3)CC2)c1 [Example 81] | ++ (“++” corresponds to ≦60% viral titer at 5 μM)
6 | CC(C)n1cc(CN2CCC(C(=O)Nc3cccc(-c4cccc(Cl)c4)c3)CC2)cn1 [Example 82] | + (“+” corresponds to ≦60% viral titer at 15 μM)
7 | O=C(Nc1ccc(Oc2ccccc2)nc1)C1CCN(Cc2ccc(Cl)s2)CC1 [Example 83] | ++ (“++” corresponds to ≦60% viral titer at 5 μM)
8 | COc1cccc(CN2CCC(C(=O)Nc3cccc(-c4cccc(F)c4)c3)CC2)c1OC [Example 84] | + (“+” corresponds to ≦60% viral titer at 15 μM)
9 | COc1cc(CN2CCC(C(=O)Nc3ccc(Oc4ccccc4F)cc3)CC2)ccc1O [Example 85] | ++ (“++” corresponds to ≦60% viral titer at 5 μM)
10 | CC(C)Cc1cc(CN2CCC(C(=O)Nc3ccc(Oc4ccccc4F)cc3)CC2)n[nH]1 [Example 86] | + (“+” corresponds to ≦60% viral titer at 15 μM)
11 | COc1cccc(-c2ccccc2NC(=O)C2CCN(Cc3nc(C)c(C)nc3C)CC2)c1 [Example 87] | ++ (“++” corresponds to ≦60% viral titer at 5 μM)
12 | COc1cccc(-c2ccccc2NC(=O)C2CCN(Cc3cc(C)ccc3C)CC2)c1 [Example 88] | + (“+” corresponds to ≦60% viral titer at 15 μM)
13 | O=C(Nc1cccc(-c2cccc(F)c2)c1)C1CCN(Cc2ccc3nsnc3c2)CC1 [Example 90] | + (“+” corresponds to ≦60% viral titer at 15 μM)
14 | COc1cccc(CN2CCC(C(=O)Nc3cccc(-c4cccc(F)c4)c3)CC2)c1O [Example 91] | ++ (“++” corresponds to ≦60% viral titer at 5 μM)
15 | O=C(Nc1ccc(-c2nc3ccccc3[nH]2)cc1)C1CCN(CC2CC=CCC2)CC1 (stereo not drawn) [Example 92] | + (“+” corresponds to ≦60% viral titer at 15 μM)
16 | C=CCn1cc(CN2CCC(C(=O)Nc3cccc(-c4cccc(F)c4)c3)CC2)c(C)n1 [Example 93] | ++ (“++” corresponds to ≦60% viral titer at 5 μM)
17 | Cc1ccc(CN2CCC(C(=O)Nc3ccc(Oc4ccccc4F)cc3)CC2)o1 [Example 94] | + (“+” corresponds to ≦60% viral titer at 15 μM)
18 | CCn1ncc(CN2CCC(C(=O)Nc3cccc(-c4cccc(F)c4)c3)CC2)c1C [Example 95] | ++ (“++” corresponds to ≦60% viral titer at 5 μM)
19 | O=C(Nc1ccc(-c2nc3ccccc3[nH]2)cc1)C1CCN(Cc2cccc(F)c2)CC1 [Example 96] | + (“+” corresponds to ≦60% viral titer at 15 μM)
20 | CCn1cc(CN2CCC(C(=O)Nc3ccc(Oc4ccccc4F)cc3)CC2)cn1 [Example 97] | ++ (“++” corresponds to ≦60% viral titer at 5 μM)
21 | O=C(Nc1cccc(-c2cccc(Cl)c2)c1)C1CCN(Cc2ccccn2)CC1 [Example 98] | + (“+” corresponds to ≦60% viral titer at 15 μM)
